Results taken from patent US20250387458A1, “COACTIVE COMBINATIONS OF ANTIMICROBIALS WITH DISPERSINB” (KANE BIOTECH INC., priority 2020, published 2025).
“Also recorded” adds a separate entry of the source. Counter-ions that a name gives are not always drawn. Positions of bridges follow the written chain, without caps; N, C: chain ends. Non-standard residues stand in square brackets, D forms with d. Residues, ends and D or L forms follow the SMILES beside them. ξ: configuration not given here. *: point of attachment. X1 = CC[C@H](C)CCCCC(=O)*; dDab = NCC[C@@H](N)C(=O)O; Dab = NCC[C@H](N)C(=O)O; ξDab = NCCC(N)C(=O)O

Columns and labels:
[1] = test system: S. epidermidis biofilm; assay: Inactivation of biofilm embedded bacteria using liquid buffer formulation (Method 1), S. epidermidis; assay type: cell-based, Staphylococcus epidermidis; conditions: for Biofilm inactivation: buffer formulation, antimicrobial tested with DspB; for Effect of DspB on activity of the antimicrobial against biofilm embedded S. epidermidis: buffer, antimicrobial plus DspB vs antimicrobial alone, P<0.05
Description: (§1) Method 1: Method to Test Inactivation of Biofilm Embedded Bacteria Using Liquid Buffer Formulation
(§2) S. epidermidis or E. coli biofilm were each grown in 96-well plate and washed three times to remove planktonic cells. Then biofilm was treated using 50 mM phosphate or citrate buffer, (no treatment control), buffer solutions containing DspB at 10-200 μg/ml, buffer solution containing antimicrobial alone, and buffer solution DspB plus antimicrobial for varying exposure times (10 min-3 h). After treatments, biofilm embedded bacteria was dispersed, diluted serially and plated on Tryptic soy agar plates. Data was analyzed using ANOVA and Tukey's test.

[2] = test system: E. coli biofilm; assay: Inactivation of biofilm embedded bacteria using liquid buffer formulation (Method 1), E. coli; assay type: cell-based, Escherichia coli; conditions: antimicrobial plus DspB vs antimicrobial alone
Description: as §1, §2

[3] = test system: S. epidermidis biofilm; assay: Compatibility between antimicrobials or antibiotics and DspB, biofilm dispersal assay in buffer (Method 3); assay type: cell-based, Staphylococcus epidermidis; conditions: for Biofilm dispersal when DspB and antimicrobial were added together: 20 μg/ml DspB, mixture used at 0 and 2 h, 10 min treatment
Description: Method 3: Method to Test Compatibility Between Antimicrobials or Antibiotics and DspB Using Biofilm Dispersal Assay
S. epidermidis biofilm was grown in 96-well plate and washed three times using sterile water to remove planktonic cells. Antimicrobials or antibiotics and DspB formulations were prepared in 50 mM phosphate or citrate buffer and stored at 37° C. for 2 h and used for treating biofilm at 0 and 2 h. Biofilm was treated using antimicrobials or antibiotics and DspB formulations for 10 min. After treatments, solutions were removed and washed 3 times to remove dispersed biofilm. Remaining biofilms in 96-well plates were stained using Crystal violet, unbound crystal violet was removed by washing the wells with sterile water, the biofilm bound crystal violet was eluted using 33% acetic acid, and the absorbance at 620 nm was taken using a microwell plate reader. Percent biofilm removal was calculated. Data was analyzed using ANOVA and Tukey's test.

[4] = test system: DspB; assay: Compatibility between antimicrobials or antibiotics and DspB, enzymatic assay in buffer (Method 4); assay type: biochemical, Aggregatibacter actinomycetemcomitans
Description: Method 4: Method to Test Compatibility Between Antimicrobials or Antibiotics and DspB Using Enzymatic Assay
DspB (200 μg/mL) and antimicrobial agent/antibiotic stocks were prepared in respective buffers. 10 mM paranitrophenol (PNP) in 400 mM sodium carbonate, and the buffer (same DspB stock) was used as the standard solution, and negative control, respectively. DspB stock and antimicrobial stock were mixed in equal proportions, and then 4×5 μl samples were taken at defined time points (0, 5, 10, 20, 30, 60, and 120 min) and used to measure the DspB enzyme activity. DspB enzymatic activity was measured using β-N-Acetylglucosaminidase assay kit from Sigma (product code CS0780) in 96-well microtiter plate following the manufacturer's instructions. The plate was incubated for 30 minutes before terminating the reaction. Data analysis was done in Excel. Student T test (paired) was performed for each time point separately using DspB activity in mixture and in control sample as two set of variables.

[5] = test system: S. epidermidis biofilm; assay: Biofilm dispersal by DspB gel formulations (Method 5); assay type: cell-based, Staphylococcus epidermidis; conditions: for Biofilm dispersal of gel containing DspB and antimicrobial compared with gel containing DspB alone: PF127 gel, 20 μg/ml DspB
Description: Method 5: Method to Test Biofilm Dispersal by DspB Gel Formulations
S. epidermidis biofilm was grown in 96-well plate and washed three times to remove planktonic cells. Then biofilm was treated using different DspB formulations appropriate treatment duration (10 min-1 h). After treatments, gels were removed and washed 3 times with sterile distilled water to remove excess gel and dispersed biofilm. Remaining biofilms in 96-well plates were stained using Crystal violet and unbound crystal violet was removed by washing the wells with sterile water, the biofilm bound crystal violet was eluted using 33% acetic acid, and the absorbance at 620 nm was taken using a microwell plate reader.
Gels containing DspB and selected concentrations of antimicrobials were formulated in 50 mM phosphate buffer or citrate buffer containing 16% PF127. DspB gel and antimicrobial gel were mixed together and incubated at 37° C. for 2 h. Biofilm dispersal was performed at 0 and 2 h using biofilm dispersal assay (Method 5). Blank gel, DspB gel and antimicrobial gels were included as controls.

[6] = test system: DspB; assay: Compatibility between antimicrobials or antibiotics and DspB in gel, enzymatic assay (Method 6); assay type: biochemical, Aggregatibacter actinomycetemcomitans; conditions: for Enzymatic activity of DspB in the presence of the antimicrobial compared with DspB control: P≤0.05, carvacrol and cinnamaldehyde at 0-30 min, chloroxylenol at 5, 10, 20 and 60 min
Description: Method 6: Method to Test Compatibility Between Antimicrobials or Antibiotics and DspB in Gel Using Enzymatic Assay
DspB gel containing 200 μg/ml DspB, 16% […] (PF127), 50 mM Phosphate buffer or citrate, 100 mM NaCl, pH 5.9, and 2× concentrated antimicrobial agent/antibiotics in 16% Poloxamer 405, 50 mM Phosphate buffer, 100 mM NaCl, pH 5.9 were mixed in equal proportions. 4×5 μL aliquots were withdrawn at 0, 5, 10, 20, 30, 60, and 120 min for measurement of DspB enzymatic activity. DspB enzymatic activity was measured using β-N-acetylglucosaminidase assay kit from Sigma (product code CS0780) in 96-well microtiter plate following the manufacturer's instructions. The plate was incubated for 30 minutes before terminating the reaction. Data analysis was done in Excel. Student T test (paired) was performed for each time point separately using DspB activity in mixture and in control sample as two set of variables. […]

[7] = gel formulation, 100 μg/ml DspB

## CCCCC(CC)CNC(=N)NC(=N)NCCCCCCNC(=N)NC(=N)NCC(CC)CCCC (centres unmarked) [Alexidine, Alexidine dihydrochloride]
[1]
  Biofilm inactivation: >5 log log CFU
  Effect of DspB on activity of the antimicrobial against biofilm embedded S. epidermidis: enhanced

## COc1ccc2cc3[n+](cc2c1OC)CCc1cc2c(cc1-3)OCO2 [Berberine hydrochloride]
[1]; hydrochloride
  Effect of DspB on activity of the antimicrobial against biofilm embedded S. epidermidis: no synergistic activity
[1]; listed as berberine hydrochloride, hydrochloride
  Effect of DspB on activity of the antimicrobial against biofilm embedded S. epidermidis: did not enhance activity; also recorded: antagonism

## Cc1ccc(C(C)C)cc1O [Carvacrol]
[1]
  Biofilm inactivation: >5 log log CFU
  Effect of DspB on activity of the antimicrobial against biofilm embedded S. epidermidis: enhanced
[2]; P<0.05
  Effect of DspB on activity of the antimicrobial against biofilm embedded E. coli: enhanced
[3]; buffer
  Biofilm dispersal when DspB and antimicrobial were added together: ≥ 73%
[4]
  Synergy or compatibility with DspB, E: enzymatic: E: synergy
[5]
  Synergy or compatibility with DspB, M: microbiological (biofilm dispersal assay; biofilm inactivation not tested): M: compatible
  Biofilm dispersal of gel containing DspB and antimicrobial compared with gel containing DspB alone: similar
[6]
  Synergy or compatibility with DspB, E: enzymatic: E: synergy
[6]; wound gel
  Enzymatic activity of DspB in the presence of the antimicrobial compared with DspB control: Higher enzymatic activity

## CCCCCCCCCCCCCCCC[n+]1ccccc1.[Cl-] [Cetylpyridinium chloride]
[4]
  Synergy or compatibility with DspB, E: enzymatic: E: no synergy
[6]
  Synergy or compatibility with DspB, E: enzymatic: E: compatible

## Cc1cc(O)cc(C)c1Cl [Chloroxylenol]
[1]
  Biofilm inactivation: >5 log log CFU
[3]; buffer
  Biofilm dispersal when DspB and antimicrobial were added together: ≥ 74%

## O=C/C=C/c1ccccc1 [Cinnamaldehyde]
[1]
  Effect of DspB on activity of the antimicrobial against biofilm embedded S. epidermidis: enhanced
[2]; P<0.05
  Effect of DspB on activity of the antimicrobial against biofilm embedded E. coli: enhanced
[3]; buffer
  Biofilm dispersal when DspB and antimicrobial were added together: ≥ 78%
[5]
  Biofilm dispersal of gel containing DspB and antimicrobial compared with gel containing DspB alone: similar
[6]; [7]
  Synergy or compatibility with DspB, E: enzymatic: E: synergy
[6]; wound gel
  Enzymatic activity of DspB in the presence of the antimicrobial compared with DspB control: Higher enzymatic activity

## O=C(O)C=Cc1ccccc1 [Cinnamic acid]
[1]
  Biofilm inactivation: <0.5 log log CFU
  Effect of DspB on activity of the antimicrobial against biofilm embedded S. epidermidis: did not show any enhancement

## CNC1C(O)[C@@H](O[C@H]2C(N)C[C@H](N)C(O[C@H]3OC([C@@H](C)N)CCC3N)C2O)OC[C@]1(C)O (some centres unmarked) [Gentamicin sulfate]
[5]
  Biofilm dispersal of gel containing DspB and antimicrobial compared with gel containing DspB alone: similar
[6]; [7]
  Synergy or compatibility with DspB, E: enzymatic: E: compatible

## CC(=O)CC/C=C(\C)CCC=C(C)C [Geranyl acetone]
[1]
  Biofilm inactivation: <0.5 log log CFU

## Cc1ncc([N+](=O)[O-])n1CCO [Metronidazole]
[5]
  Biofilm dispersal of gel containing DspB and antimicrobial compared with gel containing DspB alone: similar
[6]; [7]
  Synergy or compatibility with DspB, E: enzymatic: E: compatible

## C/C(=C\C(=O)OCCCCCCCCC(=O)O)C[C@@H]1OC[C@H](C[C@@H]2O[C@H]2[C@@H](C)[C@H](C)O)[C@@H](O)[C@H]1O [Mupirocin]
[6]; [7]
  Synergy or compatibility with DspB, E: enzymatic: E: synergy
[6]; wound gel, for up to 2 h, relative to 100 μg/mL DspB control
  DspB activity in the presence of the antimicrobial, enzymatic assay: > 100%

## CC(C)=CCC/C(C)=C\CO [Nerol]
[1]
  Biofilm inactivation: <0.5 log log CFU

## C=CC(C)(O)CCC=C(C)CCC=C(C)C (centres unmarked) [Nerolidol]
[1]
  Biofilm inactivation: <0.5 log log CFU

## CCCCCCCCN=c1ccn(CCCCCCCCCCn2ccc(=NCCCCCCCC)cc2)cc1.Cl.Cl [Octenidine dihydrochloride, octenidine dihydrochloride]
[1]
  Biofilm inactivation: >5 log log CFU
[1]; dihydrochloride
  Effect of DspB on activity of the antimicrobial against biofilm embedded S. epidermidis: enhanced activity
[1]; listed as ODC, dihydrochloride
  Effect of DspB on activity of the antimicrobial against biofilm embedded S. epidermidis: enhanced
[2]; P<0.05, dihydrochloride
  Effect of DspB on activity of the antimicrobial against biofilm embedded E. coli: enhanced activity
[2]; P<0.05, listed as ODC, dihydrochloride
  Effect of DspB on activity of the antimicrobial against biofilm embedded E. coli: enhanced
[3]; biofilms treated for 10 min, data not presented
  Biofilm dispersal when 20 μg/ml DspB was mixed with the antimicrobial: no biofilm dispersal was observed
[3]; buffer, 100 μg/ml DspB, 0.01% ODC
  Biofilm dispersal when DspB and antimicrobial were added together for 2 h: minimal biofilm dispersal
[5]
  Biofilm dispersal of gel containing DspB and antimicrobial compared with gel containing DspB alone: similar
[6]; [7]
  Synergy or compatibility with DspB, E: enzymatic: E: compatible

## CC[C@H](C)CCCCC(=O)N[C@@H](CCN)C(=O)N[C@H](C(=O)NC(CCN)C(=O)N[C@H]1CCNC(=O)[C@H]([C@@H](C)O)NC(=O)[C@H](CCN)NC(=O)[C@H](CCN)NC(=O)[C@H](CC(C)C)NC(=O)[C@@H](Cc2ccccc2)NC(=O)[C@@H](CCN)NC1=O)[C@@H](C)O (some centres unmarked) [Polymyxin B sulfate] (X1-[Dab]T[ξDab][Dab][dDab][dF]L[Dab][Dab]T; lactam 4-C)
[5]
  Biofilm dispersal of gel containing DspB and antimicrobial compared with gel containing DspB alone: similar
[6]; [7]
  Synergy or compatibility with DspB, E: enzymatic: E: compatible

## Cc1ccc(C(C)C)c(O)c1 [Thymol]
[1]
  Biofilm inactivation: >5 log log CFU
  Effect of DspB on activity of the antimicrobial against biofilm embedded S. epidermidis: enhanced

## Benzalkonium chloride
[3]
  Synergy or compatibility with DspB, M: microbiological (biofilm dispersal assay; biofilm inactivation not tested): M: no synergy
[4]
  Synergy or compatibility with DspB, E: enzymatic: E: no synergy
[5]
  Synergy or compatibility with DspB, M: microbiological (biofilm dispersal assay; biofilm inactivation not tested): M: compatible
[6]
  Synergy or compatibility with DspB, E: enzymatic: E: compatible

## BisEDT
[1]
  Biofilm inactivation: <1 log log CFU

## Nisin
[1]
  Biofilm inactivation: <0.5 log log CFU
